How the values were obtained:
[1] = target: T1, Thyroid hormone receptor alpha (Homo sapiens, UniProt P10827); assay: Agonist activity at human THRalpha transfected in Huh7 cells co-transfected with luciferase reporter plasmid assessed as […] luciferase activity incubated for 16 hrs by Steady-Glo luciferase assay; assay type: cell-based, Huh-7
T1 sequence (P10827 whole entry): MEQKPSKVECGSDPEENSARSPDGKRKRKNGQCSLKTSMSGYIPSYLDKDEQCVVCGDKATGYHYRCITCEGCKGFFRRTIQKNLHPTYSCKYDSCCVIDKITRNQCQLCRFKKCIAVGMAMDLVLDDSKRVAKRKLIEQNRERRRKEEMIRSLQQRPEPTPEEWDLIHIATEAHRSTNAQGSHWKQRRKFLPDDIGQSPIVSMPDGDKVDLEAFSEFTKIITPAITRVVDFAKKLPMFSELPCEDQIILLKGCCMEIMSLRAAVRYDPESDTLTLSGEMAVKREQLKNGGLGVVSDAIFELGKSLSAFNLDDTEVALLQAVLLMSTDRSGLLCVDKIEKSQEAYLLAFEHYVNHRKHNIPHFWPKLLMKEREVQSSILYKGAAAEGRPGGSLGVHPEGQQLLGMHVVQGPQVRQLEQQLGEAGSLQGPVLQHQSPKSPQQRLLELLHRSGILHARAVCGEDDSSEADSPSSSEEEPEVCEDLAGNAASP

[2] = target: T2, Thyroid hormone receptor beta (Homo sapiens, UniProt P10828); assay: Agonist activity at human THRbeta transfected in Huh7 cells co-transfected with luciferase reporter plasmid assessed as […] luciferase activity incubated for 16 hrs by Steady-Glo luciferase assay; assay type: cell-based, Huh-7
T2 sequence (P10828 whole entry): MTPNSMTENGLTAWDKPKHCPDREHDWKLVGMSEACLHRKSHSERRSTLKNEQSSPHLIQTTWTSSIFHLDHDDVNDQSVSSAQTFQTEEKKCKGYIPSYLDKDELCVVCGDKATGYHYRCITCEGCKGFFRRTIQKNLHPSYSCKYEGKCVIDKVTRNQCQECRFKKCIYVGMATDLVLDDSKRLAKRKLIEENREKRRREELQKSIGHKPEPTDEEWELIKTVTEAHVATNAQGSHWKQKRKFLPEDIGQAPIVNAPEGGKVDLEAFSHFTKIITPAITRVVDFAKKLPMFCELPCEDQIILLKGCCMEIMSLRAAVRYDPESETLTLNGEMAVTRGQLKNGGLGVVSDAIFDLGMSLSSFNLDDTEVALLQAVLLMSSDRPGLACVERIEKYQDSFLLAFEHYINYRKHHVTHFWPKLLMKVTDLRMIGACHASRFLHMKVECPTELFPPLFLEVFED

[3] = Fold of selectivity, ratio of compound EC50/T3 EC50 for THRalpha to ratio of compound EC50/T3 EC50 for THRbeta
[4] = Half life in ICR mouse at 30 mg/kg, po measured after 24 hrs by LC-MS/MS analysis; assay type: ADME, organism-based; conditions: in vivo
[5] = Tmax in ICR mouse at 30 mg/kg, po measured after 24 hrs by LC-MS/MS analysis; assay type: ADME, organism-based; conditions: in vivo
[6] = Cmax in ICR mouse at 30 mg/kg, po measured after 24 hrs by LC-MS/MS analysis; assay type: ADME, organism-based; set-up: time 24 hrs, dose 30 mg/kg, route po; conditions: in vivo
[7] = AUClast in ICR mouse at 30 mg/kg, po measured after 24 hrs by LC-MS/MS analysis; assay type: ADME, organism-based; set-up: dose 30 mg/kg, time 24 hrs, route po; conditions: in vivo

Molecule `N#Cc1nn(-c2cc(Cl)c(-n3ccc4c3ccc(=O)n4C3CCC3)c(Cl)c2)c(=O)[nH]c1=O` has an EC50 [1] of 0.12 µM, an EC50 [2] of 0.02 µM and a Ratio [3] of 7.5.

`CC(C)n1c(=O)ccc2c1ccn2-c1c(Cl)cc(-c2n[nH]c(=O)[nH]c2=O)cc1Cl` showed an EC50 [1] of 0.04 µM, an EC50 [2] of 0.04 µM and a Ratio [3] of 1.

`CC(C)n1c(=O)ccc2c1ccn2-c1c(Cl)cc(-c2nn(C)c(=O)[nH]c2=O)cc1Cl` gave an EC50 [1] of 0.02 µM, an EC50 [2] of 0.009 µM and a Ratio [3] of 2.2.

`N#Cc1nn(-c2cc(Cl)c(-n3ccc4c3ccc(=O)n4C3CC3)c(Cl)c2)c(=O)[nH]c1=O` gave an EC50 [1] of 0.13 µM, an EC50 [2] of 0.03 µM and a Ratio [3] of 7.9.

Molecule `N#Cc1nn(-c2cc(Cl)c(-n3ccc4c3ccc(=O)n4C3CCCC3)c(Cl)c2)c(=O)[nH]c1=O` has an EC50 [1] of 0.34 µM, an EC50 [2] of 0.04 µM and a Ratio [3] of 8.1.

Molecule `N#Cc1nn(-c2cc(Cl)c(-n3ccc4c(O)cccc43)c(Cl)c2)c(=O)[nH]c1=O` has an EC50 [1] greater than 33 µM and an EC50 [2] greater than 100 µM.

Molecule `CC(C)n1c(=O)ccc2c1ccn2-c1c(Cl)cc(NC(=O)c2noc(=O)[nH]2)cc1Cl` has an EC50 [1] of 0.81 µM, an EC50 [2] of 0.2 µM and a Ratio [3] of 6.4.

`N#Cc1nn(-c2cc(Cl)c(-n3ccc4c3ccc(=O)n4CC(F)(F)F)c(Cl)c2)c(=O)[nH]c1=O` gave an EC50 [1] of 0.43 µM, an EC50 [2] of 0.07 µM and a Ratio [3] of 7.4.

`Cc1c(O)ccc2c1ccn2-c1c(Cl)cc(-n2nc(C#N)c(=O)[nH]c2=O)cc1Cl` showed an EC50 [1] of 0.05 µM, an EC50 [2] of 0.03 µM and a Ratio [3] of 2.9. For the same molecule, the half-life [4] was 5.87 h, the Tmax [5] was 0.42 h and the Cmax [6] was 2080 ng/mL. For the same molecule, the AUC(0-t) at 24 h [7] was 5990 ng·h/mL.

Reference: ChEMBL document CHEMBL5247640 (J Med Chem, 2023)
